# In ChEMBL document CHEMBL1201862, “PubChem BioAssay data set” (2004):
#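 Five compound concentrations were applied to cells in 96-well plates for 48 hours; endpoints were derived by simple linear interpolation of the resulting dose-response curve. At the GI50, growth is halved.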 The source made the active and inactive calls. Rule as the data show it: active = GI50 up to about 1.1 µM and inactive = higher.
# Columns and labels:
# Assay in all cases: growth of human tumour cells (NCI), 48 h
# [1] = test system: CCRF-CEM
# [2] = test system: SK-OV-3
# [3] = test system: NCI-H460
# [4] = test system: U-251
# [5] = test system: OVCAR-4
# [6] = test system: NCI-H226
# [7] = test system: SF-295
# [8] = test system: Malme-3M
# [9] = test system: SNB-75
# [10] = test system: UACC-257
# [11] = test system: COLO 205
# [12] = test system: SNB-19
# [13] = test system: MCF7
# [14] = test system: OVCAR-8
# [15] = test system: MDA-MB-231
# [16] = test system: HCC 2998
# [17] = test system: RXF 393
# [18] = test system: A498
# [19] = test system: SK-MEL-5
# [20] = test system: HL-60
# [21] = test system: UO-31
# [22] = test system: K562
# [23] = test system: UACC-62
# [24] = test system: MOLT-4
# [25] = test system: SK-MEL-2
# [26] = test system: OVCAR-5
# [27] = test system: PC-3
# [28] = test system: HT-29
# [29] = test system: SN12C
# [30] = test system: HOP-62
# [31] = test system: MDA-N
# [32] = test system: SF-268
# [33] = test system: EKVX
# [34] = test system: SR
# [35] = test system: A549
# [36] = test system: M14
# [37] = test system: CAKI-1
# [38] = test system: TK-10
# [39] = test system: NCI-H522
# [40] = test system: ACHN
# [41] = test system: SF-539
# [42] = test system: RPMI-8226
# [43] = test system: IGROV-1
# [44] = test system: NCI/ADR-RES
# [45] = test system: NCI-H23
# [46] = test system: DU-145
# [47] = test system: Hs-578T
# [48] = test system: KM12
# [49] = test system: SW-620
# [50] = test system: HCT-116
# [51] = test system: 786-0
# [52] = test system: T47D
# [53] = test system: SK-MEL-28
# [54] = test system: HOP-92
# [55] = test system: MDA-MB-435
# [56] = test system: HCT-15
smiles,measurement,setting,value
Cc1ccc(S(=O)(=O)NNC(=O)Nc2cccc(C(F)(F)F)c2)cc1,GI50,[1],96.2 µM (inactive)
same,GI50,[2],> 100 µM (inactive)
same,GI50,[3],> 100 µM (inactive)
same,GI50,[4],96.8 µM (inactive)
same,GI50,[5],0.0653 µM (active)
same,GI50,[6],44.7 µM (inactive)
same,GI50,[7],> 100 µM (inactive)
same,GI50,[8],> 100 µM (inactive)
same,GI50,[9],0.0284 µM (active)
same,GI50,[10],57.9 µM (inactive)
same,GI50,[11],> 100 µM (inactive)
same,GI50,[12],> 100 µM (inactive)
same,GI50,[13],97.1 µM (inactive)
same,GI50,[14],> 100 µM (inactive)
same,GI50,[15],> 100 µM (inactive)
same,GI50,[16],> 100 µM (inactive)
same,GI50,[17],85.7 µM (inactive)
same,GI50,[18],> 100 µM (inactive)
same,GI50,[19],33.3 µM (inactive)
same,GI50,[20],> 100 µM (inactive)
same,GI50,[21],99.1 µM (inactive)
same,GI50,[22],67.6 µM (inactive)
same,GI50,[23],> 100 µM (inactive)
same,GI50,[24],> 100 µM (inactive)
same,GI50,[25],> 100 µM (inactive)
same,GI50,[26],> 100 µM (inactive)
same,GI50,[27],36.4 µM (inactive)
same,GI50,[28],> 100 µM (inactive)
same,GI50,[29],> 100 µM (inactive)
same,GI50,[30],> 100 µM (inactive)
same,GI50,[31],> 100 µM (inactive)
same,GI50,[32],> 100 µM (inactive)
same,GI50,[33],> 100 µM (inactive)
same,GI50,[34],> 100 µM (inactive)
same,GI50,[35],> 100 µM (inactive)
same,GI50,[36],> 100 µM (inactive)
same,GI50,[37],> 100 µM (inactive)
same,GI50,[38],> 100 µM (inactive)
same,GI50,[39],38.4 µM (inactive)
same,GI50,[40],58.5 µM (inactive)
same,GI50,[41],> 100 µM (inactive)
same,GI50,[42],> 100 µM (inactive)
same,GI50,[43],> 100 µM (inactive)
same,GI50,[44],61.8 µM (inactive)
same,GI50,[45],> 100 µM (inactive)
same,GI50,[46],> 100 µM (inactive)
same,GI50,[47],> 100 µM (inactive)
same,GI50,[48],57.3 µM (inactive)
same,GI50,[49],> 100 µM (inactive)
same,GI50,[50],97.1 µM (inactive)
same,GI50,[51],> 100 µM (inactive)
same,GI50,[52],> 100 µM (inactive)
same,GI50,[53],> 100 µM (inactive)
same,GI50,[54],> 100 µM (inactive)
same,GI50,[55],> 100 µM (inactive)
same,GI50,[56],89.1 µM
